Assay results as given in patent US8987195B2 (priority 2012, dated 2015).
Like-named read-outs stand apart in the source and are kept apart here.

Assays:
[1] = target: HCV NS3/4A protease genotype 1b (Hepatitis C virus genotype 1b, UniProt P26663); experiment: HCV NS3/4A protease time-resolved fluorescence (TRF) assay, Ki against genotype 1b; format: biochemical; settings: IC50 [gt-1b], NS3/4A protease TRF assay, genotype 1b enzyme 0.2 nM
In short: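 Ki values come from IC50 fits corrected for substrate concentration and KM. The time-resolved fluorescence protease reaction used 25 nM peptide substrate, 2.5 h, room temperature, pH 7.5 HEPES buffer, after 30 min enzyme–inhibitor preincubation.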

HCV genotype 1b replicon = experiment: HCV replicon assay, genotype 1b replicon EC50; format: cell-based, Hepatitis C virus; settings: HCV replicon, genotype 1b, read-out: EC50 [gt-1b]
In short: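 Readout was replicon RNA copy number, by 32P-probe protection or TaqMan normalized to cellular cyclophilin A RNA, or luciferase activity for luciferase:Neo^r fusion lines. Cells were exposed to serially diluted compound for 24-48 hours without G418, then washed and lysed. EC50 derived from four-parameter fit relative to DMSO.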

Chain of HCV NS3/4A protease genotype 1b (P26663 1027-1657): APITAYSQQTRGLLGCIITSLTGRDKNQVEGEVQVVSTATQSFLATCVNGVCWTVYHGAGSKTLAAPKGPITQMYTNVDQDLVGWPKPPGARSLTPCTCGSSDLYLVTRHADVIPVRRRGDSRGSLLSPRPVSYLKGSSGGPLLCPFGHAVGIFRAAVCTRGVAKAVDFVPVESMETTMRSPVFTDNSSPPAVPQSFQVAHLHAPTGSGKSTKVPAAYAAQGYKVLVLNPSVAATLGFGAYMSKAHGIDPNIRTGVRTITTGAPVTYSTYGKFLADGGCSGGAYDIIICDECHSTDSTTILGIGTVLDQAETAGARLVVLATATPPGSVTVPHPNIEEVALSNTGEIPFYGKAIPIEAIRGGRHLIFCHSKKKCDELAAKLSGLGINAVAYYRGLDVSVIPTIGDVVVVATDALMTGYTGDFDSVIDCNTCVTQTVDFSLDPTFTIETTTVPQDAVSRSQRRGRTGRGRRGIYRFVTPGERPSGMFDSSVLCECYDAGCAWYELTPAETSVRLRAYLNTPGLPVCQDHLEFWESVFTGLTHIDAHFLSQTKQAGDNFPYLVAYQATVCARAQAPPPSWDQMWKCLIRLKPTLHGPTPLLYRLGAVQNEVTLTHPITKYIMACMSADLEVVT
Chain of HCV NS3/4A protease genotype 1b (P26663 1658-1711): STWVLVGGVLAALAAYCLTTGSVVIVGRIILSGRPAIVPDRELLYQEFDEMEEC

Row | SMILES | IC50 [1] | EC50 (HCV genotype 1b replicon) | EC50 (HCV genotype 1b replicon; Hepatitis C virus) | IC50 ([1]; K+ salt) | EC50 (HCV genotype 1b replicon; Hepatitis C virus, K+ salt)
1 | COc1ccc2nc(C)c3c(c2c1)CC[C@]1(C[C@H]2C(=O)N[C@]4(C(=O)NS(=O)(=O)C5(C)CC5)C[C@H]4/C=C\CCCCC[C@H](NC(=O)OC(C(C)(C)C)C(F)(F)F)C(=O)N2C1)O3 (stereo partly drawn) [Example 367, 1,1,1-trifluoro-3,3-dimethylbutan-2-yl [(2R,6S,12Z,13aS,14aR,16aS)-9′-methoxy-5′-methyl-14a-{[(1-methylcyclopropyl)sulfonyl]carbamoyl}-5,16-dioxo-1,1′,2′,5,6,7,8,9,10,11,13a,14,14a,15,16,16a-hexadecahydrospiro[cyclopropa[e]pyrrolo[1,2-a][1,4]diazacyclopentadecine-2,3′-pyrano[2,3-c]quinolin]-6-yl]carbamate] | 0.03 nM | 3.61 nM | – | – | –
2 | CC(C)COC(=O)N[C@H]1CCCCC/C=C\[C@@H]2C[C@@]2(C(=O)NS(=O)(=O)C2(C)CC2)NC(=O)[C@@H]2C[C@]3(CCc4c(c(C(F)F)nc5ccc(Cl)cc45)O3)CN2C1=O [Example 368, 2-methylpropyl [(2R,6S,12Z,13aS,14aR,16aS)-9′-chloro-5′-(difluoromethyl)-14a-{[(1-methylcyclopropyl)sulfonyl]carbamoyl}-5,16-dioxo-1,1′,2′,5,6,7,8,9,10,11,13a,14,14a,15,16,16a-hexadecahydrospiro[cyclopropa[e]pyrrolo[1,2-a][1,4]diazacyclopentadecine-2,3′-pyrano[2,3-c]quinolin]-6-yl]carbamate] | 0.017 nM | – | 9.68 nM | – | –
3 | COc1ccc2nc(C)c3c(c2c1)[C@H](F)C[C@]1(C[C@H]2C(=O)N[C@]4(C(=O)NS(=O)(=O)C5(C)CC5)C[C@H]4/C=C\CCCCC[C@H](NC(=O)OCC(C)(C)C)C(=O)N2C1)O3 [Example 371, 2,2-dimethylpropyl [(1′R,2S,6S,12Z,13aS,14aR,16aS)-1′-fluoro-9′-methoxy-5′-methyl-14a-{[(1-methylcyclopropyl)sulfonyl]carbamoyl}-5,16-dioxo-1,1′,2′,5,6,7,8,9,10,11,13a,14,14a,15,16,16a-hexadecahydrospiro[cyclopropa[e]pyrrolo[1,2-a][1,4]diazacyclopentadecine-2,3′-pyrano[2,3-c]quinolin]-6-yl]carbamate] | – | – | – | 0.015 nM | 1.27 nM
4 | COc1ccc2nc(C)c3c(c2c1)[C@H](F)C[C@]1(C[C@H]2C(=O)N[C@]4(C(=O)NS(=O)(=O)C5(C)CC5)C[C@H]4/C=C\CCCCC[C@H](NC(=O)OCC(C)C)C(=O)N2C1)O3 [Example 372, 2-methylpropyl [(1′R,2S,6S,12Z,13aS,14aR,16aS)-1′-fluoro-9′-methoxy-5′-methyl-14a-{[(1-methylcyclopropyl)sulfonyl]carbamoyl}-5,16-dioxo-1,1′,2′,5,6,7,8,9,10,11,13a,14,14a,15,16,16a-hexadecahydrospiro[cyclopropa[e]pyrrolo[1,2-a][1,4]diazacyclopentadecine-2,3′-pyrano[2,3-c]quinolin]-6-yl]carbamate] | – | – | – | 0.01 nM | 2.12 nM
5 | COc1ccc2nc(C)c3c(c2c1)[C@H](F)C[C@]1(C[C@H]2C(=O)N[C@]4(C(=O)NS(=O)(=O)C5(C)CC5)C[C@H]4/C=C\CCCCC[C@H](NC(=O)OC4CCCC4)C(=O)N2C1)O3 [Example 373, cyclopentyl [(1′R,2S,6S,12Z,13aS,14aR,16aS)-1′-fluoro-9′-methoxy-5′-methyl-14a-{[(1-methylcyclopropyl)sulfonyl]carbamoyl}-5,16-dioxo-1,1′,2′,5,6,7,8,9,10,11,13a,14,14a,15,16,16a-hexadecahydrospiro[cyclopropa[e]pyrrolo[1,2-a][1,4]diazacyclopentadecine-2,3′-pyrano[2,3-c]quinolin]-6-yl]carbamate] | – | – | – | 0.011 nM | 2.67 nM
6 | COc1ccc2nc(C)c3c(c2n1)[C@H](F)C[C@]1(C[C@H]2C(=O)N[C@]4(C(=O)NS(=O)(=O)C5(C)CC5)C[C@H]4/C=C\CCCCC[C@H](NC(=O)OC(C)(C)C)C(=O)N2C1)O3 [Example 374, tert-butyl [(2S,6S,10′R,12Z,13aS,14aR,16aS)-10′-fluoro-2′-methoxy-6′-methyl-14a-{[(1-methylcyclopropyl)sulfonyl]carbamoyl}-5,16-dioxo-1,5,6,7,8,9,9′,10,10′,11,13a,14,14a,15,16,16a-hexadecahydrospiro[cyclopropa[e]pyrrolo[1,2-a][1,4]diazacyclopentadecine-2,8′-pyrano[2,3-c][1,5]naphthyridin]-6-yl]carbamate] | 0.012 nM | – | 2.29 nM | – | –
7 | Cc1nc2ccccc2c2c1O[C@]1(CC2)C[C@H]2C(=O)N[C@]3(C(=O)NS(=O)(=O)C4(C)CC4)C[C@H]3/C=C\CCCCC[C@H](NC(=O)OC3CCC(F)(F)C3)C(=O)N2C1 (stereo partly drawn) [Example 375, 3,3-difluorocyclopentyl [(2R,6S,12Z,13aS,14aR,16aS)-5′-methyl-14a-{[(1-methylcyclopropyl)sulfonyl]carbamoyl}-5,16-dioxo-1,1′,2′,5,6,7,8,9,10,11,13a,14,14a,15,16,16a-hexadecahydrospiro[cyclopropa[e]pyrrolo[1,2-a][1,4]diazacyclopentadecine-2,3′-pyrano[2,3-c]quinolin]-6-yl]carbamate] | 0.018 nM | 6.38 nM | – | – | –
8 | Cc1nc2ccccc2c2c1O[C@]1(CC2)C[C@H]2C(=O)N[C@]3(C(=O)NS(=O)(=O)C4(C)CC4)C[C@H]3/C=C\CCCCC[C@H](NC(=O)OC3CCC(F)(F)C3)C(=O)N2C1 (stereo partly drawn) [Example 376, 3,3-difluorocyclopentyl [(2R,6S,12Z,13aS,14aR,16aS)-5′-methyl-14a-{[(1-methylcyclopropyl)sulfonyl]carbamoyl}-5,16-dioxo-1,1′,2′,5,6,7,8,9,10,11,13a,14,14a,15,16,16a-hexadecahydrospiro[cyclopropa[e]pyrrolo[1,2-a][1,4]diazacyclopentadecine-2,3′-pyrano[2,3-c]quinolin]-6-yl]carbamate] | 0.013 nM | 2.69 nM | – | – | –
9 | COc1ccc2nc(C)c3c(c2n1)[C@H](F)C[C@]1(C[C@H]2C(=O)N[C@]4(C(=O)NS(=O)(=O)C5(C)CC5)C[C@H]4/C=C\CCCCC[C@H](NC(=O)OCC(C)(C)C)C(=O)N2C1)O3 [Example 377, 2,2-dimethylpropyl [(2S,6S,10′R,12Z,13aS,14aR,16aS)-10′-fluoro-2′-methoxy-6′-methyl-14a-{[(1-methylcyclopropyl)sulfonyl]carbamoyl}-5,16-dioxo-1,5,6,7,8,9,9′,10,10′,11,13a,14,14a,15,16,16a-hexadecahydrospiro[cyclopropa[e]pyrrolo[1,2-a][1,4]diazacyclopentadecine-2,8′-pyrano[2,3-c][1,5]naphthyridin]-6-yl]carbamate] | 0.018 nM | – | 2.52 nM | – | –
10 | CC(C)(C)OC(=O)N[C@H]1CCCCC/C=C\[C@@H]2C[C@@]2(C(=O)NS(=O)(=O)C2(C)CC2)NC(=O)[C@@H]2C[C@]3(CCc4c(c(C(F)(F)F)nc5ccc(Cl)cc45)O3)CN2C1=O [Example 378, tert-butyl [(2R,6S,12Z,13aS,14aR,16aS)-9′-chloro-14a-{[(1-methylcyclopropyl)sulfonyl]carbamoyl}-5,16-dioxo-5′-(trifluoromethyl)-1,1′,2′,5,6,7,8,9,10,11,13a,14,14a,15,16,16a-hexadecahydrospiro[cyclopropa[e]pyrrolo[1,2-a][1,4]diazacyclopentadecine-2,3′-pyrano[2,3-c]quinolin]-6-yl]carbamate] | 0.02 nM | – | 3.59 nM | – | –
11 | Cc1nc2ccccc2c2c1O[C@]1(CC2)C[C@H]2C(=O)N[C@]3(C(=O)NS(=O)(=O)C4(C)CC4)C[C@H]3/C=C\CCCCC[C@H](Nc3nc4ccccc4o3)C(=O)N2C1 [Example 379, (2R,6S,12Z,13aS,14aR,16aS)-6-(1,3-benzoxazol-2-ylamino)-5′-methyl-N-[(1-methylcyclopropyl)sulfonyl]-5,16-dioxo-1,1′,2′,6,7,8,9,10,11,13a,14,15,16,16a-tetradecahydrospiro[cyclopropa[e]pyrrolo[1,2-a][1,4]diazacyclopentadecine-2,3′-pyrano[2,3-c]quinoline]-14a(5H)-carboxamide] | 0.104 nM | – | 1.36 nM | – | –
12 | COc1ccc2nc(C)c3c(c2n1)[C@H](F)C[C@]1(C[C@H]2C(=O)N[C@]4(C(=O)NS(=O)(=O)C5(C)CC5)C[C@H]4/C=C\CCCCC[C@H](NC(=O)OC(C)(C)C(F)(F)F)C(=O)N2C1)O3 [Example 380, 1,1,1-trifluoro-2-methylpropan-2-yl [(2S,6S,10′R,12Z,13aS,14aR,16aS)-10′-fluoro-2′-methoxy-6′-methyl-14a-{[(1-methylcyclopropyl)sulfonyl]carbamoyl}-5,16-dioxo-1,5,6,7,8,9,9′,10,10′,11,13a,14,14a,15,16,16a-hexadecahydrospiro[cyclopropa[e]pyrrolo[1,2-a][1,4]diazacyclopentadecine-2,8′-pyrano[2,3-c][1,5]naphthyridin]-6-yl]carbamate] | – | – | – | 0.021 nM | 5.62 nM
13 | Cc1nc2cc(F)c(F)cc2c2c1O[C@]1(CC2)C[C@H]2C(=O)N[C@]3(C(=O)NS(=O)(=O)C4(C)CC4)C[C@H]3/C=C\CCCCC[C@H](NC(=O)OC(C)(C)C(F)(F)F)C(=O)N2C1 [Example 381, 1,1,1-trifluoro-2-methylpropan-2-yl [(2R,6S,12Z,13aS,14aR,16aS)-8′,9′-difluoro-5′-methyl-14a-{[(1-methylcyclopropyl)sulfonyl]carbamoyl}-5,16-dioxo-1,1′,2′,5,6,7,8,9,10,11,13a,14,14a,15,16,16a-hexadecahydrospiro[cyclopropa[e]pyrrolo[1,2-a][1,4]diazacyclopentadecine-2,3′-pyrano[2,3-c]quinolin]-6-yl]carbamate] | 0.04 nM | – | 6.74 nM | – | –
